From ChEMBL document CHEMBL4507326, “Data for DCP probe TP-030-2” (2021)

What was measured:
[1] = target: Glutamate receptor ionotropic, kainate (Rattus norvegicus) (UniProt P22756+Q01812+P42260+P42264+Q63273); conditions: Compound concentration 10.0 uM
[2] = target: Serine/threonine-protein kinase LATS1 (Homo sapiens, UniProt O95835); assay: LATS1(LAT1LGRJ) Takeda global kinase panel
[3] = target: Histamine H2 receptor (Homo sapiens) (UniProt P25021); conditions: Compound concentration 10.0 uM
Histamine H2 receptor (Homo sapiens), sequence (P25021 whole entry): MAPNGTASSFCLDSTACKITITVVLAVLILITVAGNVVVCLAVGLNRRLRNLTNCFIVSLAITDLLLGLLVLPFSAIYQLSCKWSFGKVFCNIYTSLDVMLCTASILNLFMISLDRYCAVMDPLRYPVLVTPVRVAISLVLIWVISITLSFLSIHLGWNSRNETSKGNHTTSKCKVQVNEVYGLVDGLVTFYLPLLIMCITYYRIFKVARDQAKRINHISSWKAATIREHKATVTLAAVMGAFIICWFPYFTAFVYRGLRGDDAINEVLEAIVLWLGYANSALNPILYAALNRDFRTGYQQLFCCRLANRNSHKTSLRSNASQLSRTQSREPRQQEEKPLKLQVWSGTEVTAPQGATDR

[4] = target: Androgen receptor (Homo sapiens) (UniProt P10275); conditions: Compound concentration 10.0 uM
[5] = target: Ribosomal protein S6 kinase alpha-1 (Homo sapiens, UniProt Q15418); assay: RSK1 [p90RSK(R6A2CGE1)] Takeda global kinase panel
Ribosomal protein S6 kinase alpha-1, sequence (Q15418 whole entry): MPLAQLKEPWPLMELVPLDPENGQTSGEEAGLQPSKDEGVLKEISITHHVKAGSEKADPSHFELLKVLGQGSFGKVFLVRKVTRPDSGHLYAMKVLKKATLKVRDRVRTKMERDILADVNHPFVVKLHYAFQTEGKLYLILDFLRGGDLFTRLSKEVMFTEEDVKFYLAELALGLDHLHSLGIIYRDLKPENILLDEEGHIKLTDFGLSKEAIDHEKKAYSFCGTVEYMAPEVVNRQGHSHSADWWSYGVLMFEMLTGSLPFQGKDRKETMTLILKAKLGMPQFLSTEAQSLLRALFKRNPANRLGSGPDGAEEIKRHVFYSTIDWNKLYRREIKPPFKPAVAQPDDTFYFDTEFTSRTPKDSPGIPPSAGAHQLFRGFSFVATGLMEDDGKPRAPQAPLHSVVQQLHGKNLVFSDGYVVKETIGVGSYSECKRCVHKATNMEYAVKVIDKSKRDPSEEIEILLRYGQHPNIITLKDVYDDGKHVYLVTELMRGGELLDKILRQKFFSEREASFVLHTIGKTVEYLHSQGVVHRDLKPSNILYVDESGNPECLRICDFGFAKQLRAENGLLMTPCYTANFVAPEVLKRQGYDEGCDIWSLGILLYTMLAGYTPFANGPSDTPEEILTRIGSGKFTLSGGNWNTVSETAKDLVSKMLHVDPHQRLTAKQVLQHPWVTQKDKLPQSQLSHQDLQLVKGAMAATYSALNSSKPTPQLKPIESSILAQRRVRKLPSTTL

eIF-2-alpha kinase GCN2 = eIF-2-alpha kinase GCN2 (Homo sapiens, UniProt Q9P2K8); assay: GCN2(EIK4PHK1) Takeda global kinase panel
[6] = target: Cyclin-dependent kinase 7 (Homo sapiens, UniProt P50613); assay: CDK7(CDK7CGS1) Takeda global kinase panel
Cyclin-dependent kinase 7, sequence (P50613 whole entry, the tested form may be a part): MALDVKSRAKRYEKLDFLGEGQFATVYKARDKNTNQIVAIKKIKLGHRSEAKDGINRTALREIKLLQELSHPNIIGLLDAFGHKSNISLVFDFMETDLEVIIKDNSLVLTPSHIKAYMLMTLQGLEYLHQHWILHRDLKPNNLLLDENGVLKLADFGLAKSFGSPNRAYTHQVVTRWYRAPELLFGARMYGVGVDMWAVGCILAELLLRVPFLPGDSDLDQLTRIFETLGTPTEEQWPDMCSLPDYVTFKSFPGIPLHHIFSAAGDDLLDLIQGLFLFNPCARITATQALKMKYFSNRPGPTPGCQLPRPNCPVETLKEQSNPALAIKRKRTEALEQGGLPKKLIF

LIM domain kinase 1 = LIM domain kinase 1 (Homo sapiens, UniProt P53667); assay: LIMK1(LIM1LGY1) Takeda global kinase panel
[7] = target: 5-hydroxytryptamine receptor 2B (Homo sapiens) (UniProt P41595); conditions: Compound concentration 10.0 uM
[8] = target: Tyrosine-protein kinase HCK (Homo sapiens, UniProt P08631); assay: HCK(HCK1LGF1) Takeda global kinase panel
[9] = target: Peripheral plasma membrane protein CASK (Homo sapiens, UniProt O14936); assay: CASK(CASKLGY1) Takeda global kinase panel
[10] = target: Non-receptor tyrosine-protein kinase TNK1 (Homo sapiens, UniProt Q13470); assay: Tnk1(TNK1LGY1) Takeda global kinase panel
[11] = target: Serine/threonine-protein kinase SIK2 (Homo sapiens, UniProt Q9H0K1); assay: QIK(SIK2LGY1) Takeda global kinase panel
[12] = target: Beta-1 adrenergic receptor (Homo sapiens) (UniProt P08588); conditions: Compound concentration 10.0 uM
[13] = target: Inhibitor of nuclear factor kappa-B kinase subunit beta (Homo sapiens, UniProt O14920); assay: IKKbeta(IKBBLHY1) Takeda global kinase panel
Rhodopsin kinase GRK1 = Rhodopsin kinase GRK1 (Homo sapiens, UniProt Q15835); assay: RHODK [GRK1(GRK1LGA1)] Takeda global kinase panel
[14] = target: Dual specificity protein kinase CLK1 (Homo sapiens, UniProt P49759); assay: CLK1(CLK1LGF1) Takeda global kinase panel
Dual specificity protein kinase CLK1, sequence (P49759 whole entry): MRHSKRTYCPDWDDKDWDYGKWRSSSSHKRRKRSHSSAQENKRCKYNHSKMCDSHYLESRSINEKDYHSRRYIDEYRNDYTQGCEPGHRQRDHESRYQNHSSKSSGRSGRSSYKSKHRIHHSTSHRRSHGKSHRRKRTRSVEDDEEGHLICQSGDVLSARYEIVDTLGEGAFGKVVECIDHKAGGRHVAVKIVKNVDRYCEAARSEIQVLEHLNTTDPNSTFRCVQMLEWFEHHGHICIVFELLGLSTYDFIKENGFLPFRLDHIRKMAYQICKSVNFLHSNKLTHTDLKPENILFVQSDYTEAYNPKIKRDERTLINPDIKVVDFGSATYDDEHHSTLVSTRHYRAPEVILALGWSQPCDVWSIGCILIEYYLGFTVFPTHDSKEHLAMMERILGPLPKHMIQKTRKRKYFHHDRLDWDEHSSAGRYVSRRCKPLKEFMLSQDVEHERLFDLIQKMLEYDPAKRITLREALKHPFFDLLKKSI

[15] = target: Casein kinase II subunit alpha' (Homo sapiens, UniProt P19784); assay: CK2alpha2(C2A2LGK1) Takeda global kinase panel
SRSF protein kinase 3 = SRSF protein kinase 3 (Homo sapiens, UniProt Q9UPE1); assay: MSSK1(SRP3MHRL) Takeda global kinase panel
[16] = target: Ribosomal protein S6 kinase alpha-6 (Homo sapiens, UniProt Q9UK32); assay: RSK4(R6A6LGF1) Takeda global kinase panel
Ribosomal protein S6 kinase alpha-6, sequence (Q9UK32 whole entry): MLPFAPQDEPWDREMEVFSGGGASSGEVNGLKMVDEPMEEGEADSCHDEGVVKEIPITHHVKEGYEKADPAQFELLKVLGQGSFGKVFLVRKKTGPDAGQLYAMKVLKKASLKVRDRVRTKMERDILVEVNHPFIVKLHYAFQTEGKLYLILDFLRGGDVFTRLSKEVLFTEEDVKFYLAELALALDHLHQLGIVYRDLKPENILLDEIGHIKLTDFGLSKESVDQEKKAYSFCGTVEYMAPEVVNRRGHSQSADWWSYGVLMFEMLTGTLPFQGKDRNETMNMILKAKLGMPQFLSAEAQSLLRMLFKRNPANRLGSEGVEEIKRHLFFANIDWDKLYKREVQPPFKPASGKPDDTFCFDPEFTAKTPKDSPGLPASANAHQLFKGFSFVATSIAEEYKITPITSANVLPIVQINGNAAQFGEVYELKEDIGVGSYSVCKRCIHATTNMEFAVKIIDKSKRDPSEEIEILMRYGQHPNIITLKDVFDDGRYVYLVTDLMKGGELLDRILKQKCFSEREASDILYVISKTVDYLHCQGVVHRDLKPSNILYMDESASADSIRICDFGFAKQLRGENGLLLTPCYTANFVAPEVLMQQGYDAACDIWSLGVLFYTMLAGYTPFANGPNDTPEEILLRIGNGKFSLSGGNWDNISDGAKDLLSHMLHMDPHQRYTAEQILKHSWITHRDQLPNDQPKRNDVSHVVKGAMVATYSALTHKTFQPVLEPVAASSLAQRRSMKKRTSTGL

[17] = target: Tyrosine-protein kinase JAK3 (Homo sapiens, UniProt P52333); assay: JAK3(JAK3LGRG) Takeda global kinase panel
[18] = target: Rho-associated protein kinase 1 (Homo sapiens, UniProt Q13464); assay: ROCK1(ROC1LGY1) Takeda global kinase panel
[19] = target: D(2) dopamine receptor (Homo sapiens) (UniProt P14416); conditions: Compound concentration 10.0 uM
[20] = target: Cyclin-dependent kinase 5 (Homo sapiens, UniProt Q00535); assay: CDK5(CDK5CGS1) Takeda global kinase panel
Cyclin-dependent kinase 5, sequence (Q00535 whole entry): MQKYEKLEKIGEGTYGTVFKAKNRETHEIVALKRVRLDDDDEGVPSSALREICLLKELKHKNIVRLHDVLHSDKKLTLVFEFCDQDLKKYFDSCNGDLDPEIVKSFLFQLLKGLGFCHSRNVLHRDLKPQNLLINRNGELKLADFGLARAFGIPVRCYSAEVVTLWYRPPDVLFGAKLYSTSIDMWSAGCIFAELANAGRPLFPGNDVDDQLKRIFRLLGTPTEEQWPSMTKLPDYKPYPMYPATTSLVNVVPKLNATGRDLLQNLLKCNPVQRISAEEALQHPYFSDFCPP

[21] = target: Serine/threonine-protein kinase Nek3 (Homo sapiens, UniProt P51956); assay: Nek3(NEK3LGRI) Takeda global kinase panel
[22] = target: Tyrosine-protein kinase Fer (Homo sapiens, UniProt P16591); assay: Fer(FER1LGY1) Takeda global kinase panel
[23] = target: Glycogen synthase kinase-3 beta (Homo sapiens, UniProt P49841); assay: GSK3beta(GS3BLGM1) Takeda global kinase panel
Glycogen synthase kinase-3 beta, sequence (P49841 whole entry): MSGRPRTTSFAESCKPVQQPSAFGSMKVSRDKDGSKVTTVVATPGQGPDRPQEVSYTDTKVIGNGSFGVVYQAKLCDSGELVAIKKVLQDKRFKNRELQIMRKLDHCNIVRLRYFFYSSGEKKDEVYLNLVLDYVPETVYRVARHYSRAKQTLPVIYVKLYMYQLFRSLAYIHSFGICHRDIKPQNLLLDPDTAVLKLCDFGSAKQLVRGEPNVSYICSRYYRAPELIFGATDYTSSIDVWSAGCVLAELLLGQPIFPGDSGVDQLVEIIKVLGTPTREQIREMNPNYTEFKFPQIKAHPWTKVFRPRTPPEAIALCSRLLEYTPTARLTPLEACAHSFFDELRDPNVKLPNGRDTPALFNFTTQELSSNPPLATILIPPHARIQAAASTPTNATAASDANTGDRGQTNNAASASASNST

[24] = target: Serine/threonine-protein kinase TAO2 (Homo sapiens, UniProt Q9UL54); assay: TAO2(TAO2LGF1) Takeda global kinase panel
[25] = target: Insulin receptor-related protein (Homo sapiens, UniProt P14616); assay: IRR(INSSLGF1) Takeda global kinase panel
Insulin receptor-related protein, sequence (P14616 27-742 limits assumed): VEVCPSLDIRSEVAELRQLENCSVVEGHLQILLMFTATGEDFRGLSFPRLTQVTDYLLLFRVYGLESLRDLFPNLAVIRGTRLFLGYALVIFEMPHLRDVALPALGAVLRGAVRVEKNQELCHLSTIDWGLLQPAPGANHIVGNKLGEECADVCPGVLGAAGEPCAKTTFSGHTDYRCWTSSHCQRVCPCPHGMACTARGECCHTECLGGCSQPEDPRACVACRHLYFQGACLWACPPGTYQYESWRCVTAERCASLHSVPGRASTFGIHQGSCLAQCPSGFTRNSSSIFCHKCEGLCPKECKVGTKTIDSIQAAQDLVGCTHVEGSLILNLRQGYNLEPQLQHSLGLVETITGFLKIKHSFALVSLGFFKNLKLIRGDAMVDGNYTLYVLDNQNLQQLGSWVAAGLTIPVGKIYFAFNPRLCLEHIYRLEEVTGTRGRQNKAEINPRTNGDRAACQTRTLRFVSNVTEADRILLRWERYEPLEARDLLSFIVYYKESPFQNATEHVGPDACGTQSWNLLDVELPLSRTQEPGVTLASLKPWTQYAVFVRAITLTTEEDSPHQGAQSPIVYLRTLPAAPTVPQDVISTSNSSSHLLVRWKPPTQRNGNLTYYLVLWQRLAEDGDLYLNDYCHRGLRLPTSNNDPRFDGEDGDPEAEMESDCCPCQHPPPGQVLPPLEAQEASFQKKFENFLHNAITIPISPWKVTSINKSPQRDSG
Insulin receptor-related protein, sequence (P14616 747-1297 limits assumed): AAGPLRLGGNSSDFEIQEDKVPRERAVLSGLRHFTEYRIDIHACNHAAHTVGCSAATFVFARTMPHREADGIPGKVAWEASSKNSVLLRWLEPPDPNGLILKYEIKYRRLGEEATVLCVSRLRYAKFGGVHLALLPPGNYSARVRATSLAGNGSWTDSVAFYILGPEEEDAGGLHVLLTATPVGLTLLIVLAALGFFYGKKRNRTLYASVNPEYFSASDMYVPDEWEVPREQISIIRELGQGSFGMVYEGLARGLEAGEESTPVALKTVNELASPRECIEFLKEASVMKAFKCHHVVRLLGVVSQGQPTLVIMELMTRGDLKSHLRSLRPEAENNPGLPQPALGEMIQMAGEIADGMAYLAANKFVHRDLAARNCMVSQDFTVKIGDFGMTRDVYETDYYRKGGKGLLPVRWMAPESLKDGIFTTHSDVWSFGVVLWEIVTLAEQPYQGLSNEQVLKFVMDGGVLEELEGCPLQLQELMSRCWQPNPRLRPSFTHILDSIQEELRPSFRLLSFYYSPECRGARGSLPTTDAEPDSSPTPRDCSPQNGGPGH

[26] = target: Serine/threonine-protein kinase D2 (Homo sapiens, UniProt Q9BZL6); assay: PKD2(PRD2LHY1) Takeda global kinase panel
Ephrin type-A receptor 6 = Ephrin type-A receptor 6 (Homo sapiens, UniProt Q9UF33); assay: EphA6(EPA6LGI5) Takeda global kinase panel
[27] = target: Bromodomain-containing protein 4 (Homo sapiens, UniProt O60885); assay: BRD4(BRD4LGRC) Takeda global kinase panel
[28] = target: Mitogen-activated protein kinase kinase kinase kinase 5 (Homo sapiens, UniProt Q9Y4K4); assay: KHS1(M4K5LGY1) Takeda global kinase panel
[29] = target: Serine/threonine-protein kinase 32A (Homo sapiens, UniProt Q8WU08); assay: YANK1(S32APHY1) Takeda global kinase panel
[30] = target: Histamine H3 receptor (Homo sapiens) (UniProt Q9Y5N1); conditions: Compound concentration 10.0 uM
[31] = target: High affinity nerve growth factor receptor (Homo sapiens, UniProt P04629); assay: TRKA(NTR1LGN1) Takeda global kinase panel
[32] = target: Serine/threonine-protein kinase PLK3 (Homo sapiens, UniProt Q9H4B4); assay: PLK3(PLK3PHY1) Takeda global kinase panel
[33] = target: Melatonin receptor type 1A (Homo sapiens) (UniProt P48039); assay: Inhibition of Melatonin MT1 at 10 µM in the Eurofins-Panlabs radioligand binding assay (Eurofins_assay_251600); set-up: ligand concentration 0.05 nM; conditions: Compound concentration 10.0 uM
Melatonin receptor type 1A (Homo sapiens), sequence (P48039 whole entry): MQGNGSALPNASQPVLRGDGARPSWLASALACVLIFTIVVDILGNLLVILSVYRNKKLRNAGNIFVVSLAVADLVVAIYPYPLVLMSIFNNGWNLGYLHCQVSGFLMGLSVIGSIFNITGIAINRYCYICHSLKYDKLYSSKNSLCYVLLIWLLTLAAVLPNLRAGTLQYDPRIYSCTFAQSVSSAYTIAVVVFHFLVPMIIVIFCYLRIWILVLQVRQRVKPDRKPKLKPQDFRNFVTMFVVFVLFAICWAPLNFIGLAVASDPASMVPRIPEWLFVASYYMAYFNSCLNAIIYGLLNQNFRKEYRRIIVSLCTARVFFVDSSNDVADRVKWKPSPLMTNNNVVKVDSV

Homo sapiens = species on record: Homo sapiens; conditions: Compound concentration 10.0 uM
[34] = target: 5-hydroxytryptamine receptor 2C (Homo sapiens) (UniProt P28335); conditions: Compound concentration 10.0 uM
[35] = target: 5-hydroxytryptamine receptor 7 (Homo sapiens) (UniProt P34969); conditions: Compound concentration 10.0 uM
Ephrin type-A receptor 4 = Ephrin type-A receptor 4 (Homo sapiens, UniProt P54764); assay: EphA4(EPA4LGF1) Takeda global kinase panel
[36] = GPCRScan assay: inhibition of GABA/PBR; set-up: species or system Rattus norvegicus; radioligand conc. used [nm] 0.3 – 2.0, parental cells brain tissue

SMILES: CN1C(=O)[C@@H](N2CCc3c(nn(Cc4ccccc4)c3Br)C2=O)COc2ccccc21 [TP-030-2]
- inhibition [1]: 5%
- IC50 [2]: 1000 nM
- inhibition [3]: 0.52%
- inhibition [4]: 6%
- IC50 [5]: 1000 nM
- IC50 (eIF-2-alpha kinase GCN2): 1000 nM
- IC50 [6]: 1000 nM
- IC50 (LIM domain kinase 1): 1000 nM
- inhibition [7]: 38.3%
- IC50 [8]: 1000 nM
- IC50 [9]: 1000 nM
- IC50 [10]: 1000 nM
- IC50 [11]: 1000 nM
- inhibition [12]: -4%
- IC50 [13]: 1000 nM
- IC50 (Rhodopsin kinase GRK1): 1000 nM
- IC50 [14]: 1000 nM
- IC50 [15]: 1000 nM
- IC50 (SRSF protein kinase 3): 1000 nM
- IC50 [16]: 1000 nM
- IC50 [17]: 1000 nM
- IC50 [18]: 1000 nM
- inhibition [19]: -5.95%
- IC50 [20]: 1000 nM
- IC50 [21]: 1000 nM
- IC50 [22]: 1000 nM
- IC50 [23]: 1000 nM
- IC50 [24]: 1000 nM
- IC50 [25]: 1000 nM
- IC50 [26]: 1000 nM
- IC50 (Ephrin type-A receptor 6): 1000 nM
- IC50 [27]: 1000 nM
- IC50 [28]: 1000 nM
- IC50 [29]: 1000 nM
- inhibition [30]: 5%
- IC50 [31]: 1000 nM
- IC50 [32]: 1000 nM
- inhibition [33]: 33%
- inhibition (Homo sapiens): 16%
- inhibition [34]: 2.4%
- inhibition [35]: 5.69%
- IC50 (Ephrin type-A receptor 4): 1000 nM
- Ki [36]: 347 nM
- pKi [36]: 6.465
